How the values were obtained:
mice = assay: Acute toxicity, mouse; assay type: in vivo; conditions: 24 hours; for Number of dead animals/number of test animals: Table 7, 1000 mg/kg p.o.; for Presumed LD50: Table 7, p.o.
Experimental: The acute toxicity of the compounds of the invention was examined by the following method.
Male ddy-strain 5-week old mice and male Wistar-strain 8 week old rats, five per group, were used as experimental animals. Each of the compounds was dissolved in saline and administered perorally, and the toxicity of the compound was assessed 24 hours after the administration.

[1] = test system: mouse neuroblastoma cell line neuro-2a; assay: Activity on cell line neuro-2a (simple method); assay type: cell-based
How it was run: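 Cells (2–6×10^4 per dish) grown 1–2 days at 37 °C, then switched to serum-free RPMI/MEM with compound in PBS for 24 h. Live cells counted by erythrosine exclusion; score is fraction of cells bearing neurites at least as long as the cell's long diameter, from photos.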

[2] = test system: rats with crushed sciatic nerves; assay: Curative effect on rats with crushed sciatic nerves; assay type: in vivo, rat (male Wistar); conditions: for Rate of recovery in muscle weight: soleus muscle, saline 51.8 ± 1.2
Experimental: Curative effect on rats with crushed sciatic nerves:
The curing effect of the compound (I) of the invention was tested on rats having crushed scietic nerves as a model of peripheral nervous disorder using (1) a change in the action of the hind paw with the crushed sciatic nerves and (2) a change in the weight of the muscle as an index of the course of degeneration and regeneartion of peripheral nerves.
In the experiment, male Wistar rats (6 weeks old), seven per group, were used. The sciatic nerves were crushed by a method similar to the method of Yamatsu et al. (see Kiyomi Yamatsu, Takenori Kaneko, Akifumi Kitahara and Isao Ohkawa, Journal of Japanese Pharmacological Society, 72, 259-268 (1976) and the method of Hasegawa et al. (see Kazuo Hasegawa, Naoji Mikuni and Yutaka Sakai, Journal of Japanese Pharmacological Society, 74, 721-734 (1978). Specifically, under anesthesia with pentobarbital (40 mg/kg, i.p.), the left side sciatic nerve was exposed at the femur and that site of the exposed scietic nerve which was 5 mm to the center from the branched part between the N. tibialis and the N. suralis was crushed using a modified artery, klomme, having a width of 2 mm and a gap of 0.1 mm. After the operation, the rats were assigned to the test groups at random.
Compound No. 408 was selected as the compound (I) of the invention and intraperitoneally administered to the rats once a day from the day of operation to the 22nd day. A group to which mecobalamin (made by Gedeon Richter Ltd.) was administered and a group to which 0.9% saline was administered were used as controls. The following items were measured with the lapse of time (on the 1st, 4th, 7th, 10th, 14th, 17th, 21st, and 23rd days after the crushing of the scietic nerves).
(1) Change in the action of the side of the hind paw with the crushed scietic nerve:
By a method similar to the method of Hasegawa [Hasegawa, K., Experientia, 34, 750-751 (1978)], the distance between the first and fifth digits of the hind paw was measured.
The ratio of the measured distance to the normal distance was calculated and expressed in percentage (%).
(2) Change in the weight of muscle
It is known that removal of a nerve or its disorder causes atrophy of the muscle which is under its control, and the atrophy is gradually cured by re-control by the nerve. For this reason, a change in the weight of the muscle, which is quantitative, was selected as an index. Twenty-three days after the operation, the soleus muscles of both sides of paws were extracted under anesthesia with pentobarbital, and their weights were measured. The ratio of the weight of the soleus muscle on the crushed side to that of normal side was calculated and expressed in percentage (%).

[3] = Table 2 neuro-2a Run No. 2, 1 μg/ml, control 7.9
[4] = Table 2 neuro-2a Run No. 2, 10 μg/ml, control 7.9

In the case of CN1Cc2nc(N3CCNCC3)ncc2C1=O [Compound 604], the “Number of dead animals/number of test animals” value (mice) is reported as 0/5, the “Presumed LD50” value (mice; 1440 min) is reported as > 1000 mg/kg p.o and the “Average of the proportions” value [1, 3] is reported as 19.86%. The “Average of the proportions” value [1, 4] was 17.20%, the “Average of the proportions” value ([1]; Table 2 neuro-2a Run No. 3, 0.01 μg/ml, control 2.0) was 10.7% and the “Average of the proportions” value ([1]; Table 2 neuro-2a Run No. 3, 0.1 μg/ml, control 2.0) was 16.50%. The “Average of the proportions” value ([1]; Table 2 neuro-2a Run No. 3, 1 μg/ml, control 2.0) was 11.25%.

For CN1C(=O)Cc2cnc(N3CCNCC3)nc21 [Compound 408], the “Rate of recovery of the interdigit distance” value ([2]; 21st day, 3 mg/kg ip once a day, saline 62.0 ± 2.4) was 70.9 ± 3.5%, the “Rate of recovery of the interdigit distance” value ([2]; 21st day, 10 mg/kg ip once a day, saline 62.0 ± 2.4, *P < 0.05) was 74.9 ± 3.1% and the “Rate of recovery of the interdigit distance” value ([2]; 21st day, 30 mg/kg ip once a day, saline 62.0 ± 2.4, ***P < 0.001) was 79.6 ± 2.9%. The “Rate of recovery of the interdigit distance” value ([2]; 21st day, 100 mg/kg ip once a day, saline 62.0 ± 2.4) was 68.9 ± 4.3%, the “Rate of recovery of the interdigit distance” value ([2]; 23rd day, 3 mg/kg ip once a day, saline 71.1 ± 3.4) was 80.1 ± 3.6% and the “Rate of recovery of the interdigit distance” value ([2]; 23rd day, 10 mg/kg ip once a day, saline 71.1 ± 3.4, *P < 0.05) was 82.3 ± 2.7%. For the same molecule, the “Rate of recovery of the interdigit distance” value ([2]; 23rd day, 30 mg/kg ip once a day, saline 71.1 ± 3.4, *P < 0.05) was 85.4 ± 4.1%, the “Rate of recovery of the interdigit distance” value ([2]; 23rd day, 100 mg/kg ip once a day, saline 71.1 ± 3.4) was 77.3 ± 6.0% and the “Rate of recovery in muscle weight” value ([2]; 23rd day, 3 mg/kg ip, *P < 0.05) was 58.0 ± 2.0%. For the same molecule, the “Rate of recovery in muscle weight” value ([2]; 23rd day, 10 mg/kg ip, *P < 0.05) was 59.4 ± 2.2%, the “Rate of recovery in muscle weight” value ([2]; 23rd day, 30 mg/kg ip, *P < 0.05) was 59.3 ± 2.7% and the “Rate of recovery in muscle weight” value ([2]; 23rd day, 100 mg/kg ip, *P < 0.05) was 63.9 ± 3.5%. The “Number of dead animals/number of test animals” value (mice; 1000 mg/kg) was 0/5, the “Presumed LD50” value (mice) was > 1000 mg/kg p.o and the “Average of the proportions” value [1, 3] was 27.73%. For the same molecule, the “Average of the proportions” value [1, 4] was 25.05%.

From patent publication US4959368A, “Therapeutic agent for neurological diseases” (Mitsui Petrochemical Industries Ltd., priority 1986, dated 1990)
